Measurements reported in PubChem BioAssay (NCI).
“And” between values parts separate entries of the source, which are not always exact repeats. Equal entries are not always repeated.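 In this assay, cells in 96-well plates receive the compound at five concentrations for 48 hours. Endpoints are linearly interpolated between the surrounding concentrations. The concentration for 50% growth inhibition is given as GI50. The concentration for full growth arrest is given as TGI.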

What was measured:
Assay in all cases: NCI tumour cell line growth inhibition, 48 h
[1] = tested on: ACHN renal
[2] = tested on: EKVX NSCLC
[3] = tested on: HOP-62 NSCLC
[4] = tested on: K-562 leukemia
[5] = tested on: MOLT-4 leukemia
[6] = tested on: NCI-H23 lung
[7] = tested on: NCI-H460 lung
[8] = tested on: OVCAR-8 ovarian
[9] = tested on: SNB-19 CNS
[10] = tested on: UO-31 renal

| Structure (SMILES) | GI50 [1] [µM] | TGI [1] [µM] | GI50 [2] | TGI [2] [µM] | GI50 [3] | TGI [3] [µM] | GI50 [4] | TGI [4] [µM] | GI50 [5] | TGI [5] [µM] | GI50 [6] | TGI [6] [µM] | GI50 [7] | TGI [7] [µM] | GI50 [8] | TGI [8] [µM] | GI50 [9] | TGI [9] [µM] | GI50 [10] [µM] | TGI [10] [µM] |
| --- | --- | --- | --- | --- | --- | --- | --- | --- | --- | --- | --- | --- | --- | --- | --- | --- | --- | --- | --- | --- |
| COc1cc2cc(Oc3ccc(NC(=O)Nc4ccc(F)c(C(F)(F)F)c4)cc3)c(C)nc2cc1OCCN1CCOCC1 | 2.3 | 11.4 | 2.53 µM | 20.7 | 3.99 µM | 20.5 | 0.88 µM | 10.3 | 1.86 µM | 11.4 | 1.43 µM | 5.88 | 1.96 µM | 5.34 | 2.73 µM | > 100 | 3.96 µM | 19.3 | 1.71 | 10.6 |
| CCC(CO)COC(=O)/C=C/C(=O)OCC(CC)CO (stereo not drawn) | – | > 100 | – | > 100 | – | > 100 | – | > 100 | – | > 100 | – | > 100 | – | > 100 | – | > 100 | – | > 100 | – | > 100 |
| CCOC(=O)Nc1ccc2c3c(cccc13)-c1ccccc1-2 | 9.73 | > 100 | 2.18 µM | > 100 | 5.27 µM | > 100 | 4.12 µM | > 100 | 8.5 µM | > 100 | 98.1 µM | > 100 | 3.99 µM | > 100 | > 100 µM | > 100 | 23.5 µM | > 100 | 2.59 | > 100 |
| O=C(O)c1ccc(NCn2nc(-c3ccccc3O)oc2=S)cc1O | 31.6 | 99.1 | > 100 µM | > 100 | > 100 µM | > 100 | > 100 µM | > 100 | 26.1 µM | 82.1 | > 100 µM | > 100 | 95.6 µM | > 100 | > 100 µM | > 100 | > 100 µM | > 100 | > 100 | > 100 |
| O=[N+]([O-])c1cccc(C=NC23CC4CC(CC(C4)C2)C3)c1 | – | > 100 | – | > 100 | – | > 100 | – | > 100 | – | > 100 | – | > 100 | – | > 100 | – | > 100 | – | > 100 | – | > 100 |
| COc1c(O)cc2c(c1CC=C(C)C)OC(=O)c1c(cc(O)c(CC=C(C)C)c1O)O2 | 3.93 | 7.49 | 4.67 µM | 8.74 | 4.19 µM | 7.72 | 5.91 µM | 17 | 4.1 µM | 12.7 | 3.45 µM | 8.29 | 3.69 µM | 7.29 | 4.47 µM | 8.71 | 4.5 µM | 8.51 | 4.22 | 7.79 |
| N#C/C(=C\c1ccc([N+](=O)[O-])cc1)n1nnc2cc(F)c(F)cc21 | 1.74 | 3.11 | 1.7 µM | 3.56 | 1.78 µM | 4.11 | 3.14 µM | > 100 | 2.97 µM | 10.5 | 1.87 µM | 4.08 | 2.3 µM | 5.84 | 2.14 µM | 6.17 | 2.96 µM | 10.4 | 1.25 | 2.5 |
| CC(C)[C@]12O[C@H]1[C@@H]1O[C@]13[C@]1(O[C@H]1C[C@H]1C4=C(CC[C@@]13C)C(=O)OC4)[C@@H]2OC(=O)OC(C)(C)C | 0.0107 | > 100 | 0.0573 µM | > 100 | 0.0146 µM | > 100 | 0.0199 µM | > 100 | 0.0156 µM | – | < 0.01 µM | 0.0569 | < 0.01 µM | > 33.6 | 0.0281 µM | > 100 | 0.128 µM | > 100 | 0.0164 | > 100 |
| COC(=O)Nc1nc2ccc(C(=O)C3CC3)cc2[nH]1 | 0.79 | > 100 | 0.554 µM | > 100 | 0.523 µM | > 42.2 | 0.417 µM | > 100 | 1.25 µM | > 100 | 0.47 µM | > 27.6 | 0.363 µM | 20.7 | 0.668 µM | > 100 | 0.88 µM | > 56.5 | 3.21 | > 63.1 |
| S=C1NC(c2ccccc2)=NC(Cc2ccccc2)(c2ccccc2)N1c1ccccc1 (stereo not drawn) | – | > 100 | – | > 100 | – | > 100 | – | > 100 | – | > 100 | – | > 100 | – | > 100 | – | > 100 | – | > 100 | – | > 100 |
| CC(=O)NS(=O)(=O)c1ccc(-n2nc(-c3ccccc3)cc2-c2cc(O)ccc2O)cc1 | > 100 | > 100 | > 100 µM | > 100 | > 100 µM | > 100 | > 100 µM | > 100 | > 100 µM | > 100 | > 100 µM | > 100 | > 100 µM | > 100 | > 100 µM | > 100 | > 100 µM | > 100 | > 100 | > 100 |
| COC(=O)CCC(=O)C(CC(=O)OC)C(=O)CCC(=O)NCCc1ccccc1 (stereo not drawn) | – | > 100 | – | > 100 | – | > 100 | – | > 100 | – | > 100 | – | > 100 | – | > 100 | – | > 100 | – | > 100 | – | > 100 |
| OC1CCC(COC(c2ccccc2)(c2ccccc2)c2ccccc2)O1 (stereo not drawn) | – | 31.1 | – | > 10 | – | 33.9 | – | 41.1 | – | 35.2 | – | 35.4 | – | 44.5 | – | 35.8 | – | 40 | – | 33.2 |
| COC(=O)C(=O)C(C(=O)C(=O)Nc1ccccc1C(N)=O)c1nc2ccc([N+](=O)[O-])cc2[nH]c1=O (stereo not drawn) | – | > 100 | – | > 100 | – | > 100 | – | > 100 | – | > 100 | – | > 100 | – | > 100 | – | > 100 | – | > 100 | – | > 100 |
| Cn1cnc([N+](=O)[O-])c1Sc1nccn1-c1ccccc1 | – | > 100 | – | > 100 | – | > 100 | – | > 100 | – | 74.1 | – | 79.6 | – | > 100 | – | > 100 | – | > 100 | – | > 100 |
| CCOC(=O)Cc1csc(Nc2nc(O)c(C3=c4ccccc4=NC3=O)s2)n1 | 23 | 47.3 | 77.6 µM | > 100 | 20.6 µM | 39.5 | 37.2 µM | > 100 | 36.7 µM | 88.9 | 56 µM | > 100 | 21.6 µM | 65.2 | 43.7 µM | > 100 | 38.4 µM | > 100 | 23 | 51.6 |
| CCOC(=O)Nc1nc(-c2ccccc2)c(C)s1 | – | > 100 | – | > 100 | – | > 100 | – | > 100 | – | 45.5 | – | > 100 | – | > 100 | – | > 100 | – | > 100 | – | > 100 |
| NS(=O)(=O)c1ccc(N=Nc2c(O)[nH]c3cccc(CCc4ccncc4)c23)cc1 | > 25 | > 25 | > 25 µM | > 25 | > 25 µM | > 25 | > 25 µM | > 25 | > 25 µM | > 25 | > 25 µM | > 25 | > 25 µM | > 25 | > 25 µM | > 25 | > 25 µM | > 25 | > 25 | > 25 |
| N#CCC(=O)N/N=C(/C(=O)Nc1ccccc1)C1C(=O)N(c2ccccc2)N=C1N (stereo not drawn) | – | > 100 | – | > 100 | – | > 100 | – | > 100 | – | > 100 | – | > 100 | – | > 100 | – | > 100 | – | > 100 | – | > 100 |
| Nc1nc(N)c2cc(Sc3ccc(Cl)cc3)ccc2n1 | 0.666 | 16.4 | 1.66 µM | 17.6 | 1.49 µM | 14.9 | 0.286 µM | 1.86 | 1.9 µM | 11.1 | 1.38 µM | 15.6 | 0.314 µM | 11.9 | 0.961 µM | 2.61 | 3.71 µM | 20.8 | 2.43 | 16.1 |
| CCOc1ccc(N=C2NC(=O)C(CC(=O)Nc3ccc(Cl)cc3Cl)S2)cc1 (stereo not drawn) | – | > 100 | – | > 100 | – | > 100 | – | > 100 | – | > 100 | – | > 100 | – | > 100 | – | > 100 | – | > 100 | – | > 100 |
| COC(=O)CC12CC(NC(=O)c3csc([C@@H](C[C@H](C(C)C)N(C)C(=O)[C@@H](NC(=O)[C@H]4CCCCN4C)C(C)C)OC(C)=O)n3)(C1)C2 | 0.026 | > 33.3 | 0.00949 µM and 0.0229 µM | > 33.3 | 0.00498 µM and 0.00838 µM | > 33.3 | 0.00194 µM and 0.00333 µM | > 33.3 | 0.00615 µM and 0.0143 µM | > 33.3 | 0.0098 µM and 0.0167 µM | > 33.3 | 0.00322 µM and 0.0116 µM | > 33.3 | 0.00545 µM and 0.0131 µM | > 33.3 | 0.0031 µM and 0.0114 µM | > 33.3 | – | > 33.3 |
